# Results: paper PMC12396409, “Screening and hit evaluation of a microbial metabolite library against the pathogenic Plasmodium falciparum and Toxoplasma gondii parasites” (International Journal for Parasitology: Drugs and Drug …, 2025)
# Where two headings read alike, the source gives them in different places.
# What was measured:
# [1] = tested on: T. gondii RH strain (RH-Tub-eYFP) tachyzoites; experiment: microbe, parasite or virus in culture; type: cell-based, Toxoplasma gondii; conditions: 72 h; for percent parasite growth at 2 µg/mL: Toxoplasma gondii
# [2] = tested on: P. falciparum 3D7 parasites; experiment: P. falciparum growth inhibition assay, 2-cycle (120 h treatment), delayed-death screen and dose-response; type: cell-based, Plasmodium falciparum; conditions: for activity at 2 µg/mL: Plasmodium falciparum, 3D7
# [3] = tested on: P. falciparum 3D7 parasites; experiment: P. falciparum growth inhibition assay, 1-cycle (72 h treatment), SYBR DNA staining (library screen at 2 μg/mL and dose-response); type: cell-based, Plasmodium falciparum; conditions: for activity at 2 µg/mL: Plasmodium falciparum, 3D7
# [4] = library screen at 2 μg/mL, % growth, replicate 1
# [5] = library screen at 2 μg/mL, % growth, replicate 2
# [6] = library screen at 2 μg/mL, 120 h, % growth, replicate 1
# [7] = library screen at 2 μg/mL, 120 h, % growth, replicate 2
# [8] = library screen at 2 μg/mL, 72 h, % growth, replicate 1
# [9] = library screen at 2 μg/mL, 72 h, % growth, replicate 2
# [10] = T. gondii, screen at 2 μg/mL, replicate 1, read-out: Tg_72h_%Growth_Rep1
# [11] = T. gondii, screen at 2 μg/mL, replicate 2, read-out: Tg_72h_%Growth_Rep2
# [12] = P. falciparum, 120 h, screen at 2 μg/mL, replicate 1, read-out: Pf_120h_%Growth_Rep1
# [13] = P. falciparum, 120 h, screen at 2 μg/mL, replicate 2, read-out: Pf_120h_%Growth_Rep2
# [14] = P. falciparum, 72 h, screen at 2 μg/mL, replicate 1, read-out: Pf_72h_%Growth_Rep1
# [15] = P. falciparum, 72 h, screen at 2 μg/mL, replicate 2, read-out: Pf_72h_%Growth_Rep2
# [16] = T. gondii, screen at 2 μg/mL, replicate 1
# [17] = T. gondii, screen at 2 μg/mL, replicate 2
# [18] = P. falciparum, 120 h, screen at 2 μg/mL, replicate 1
# [19] = P. falciparum, 120 h, screen at 2 μg/mL, replicate 2
# [20] = P. falciparum, 72 h, screen at 2 μg/mL, replicate 1
# [21] = P. falciparum, 72 h, screen at 2 μg/mL, replicate 2
compound,measurement,setting,value
"CC[C@H](C)[C@H]1O[C@]2(C=C[C@@H]1C)C[C@@H]1C[C@@H](C/C=C(\C)[C@@H](O[C@H]3C[C@H](OC)[C@@H](O[C@H]4C[C@H](OC)[C@H](NC(C)=O)[C@H](C)O4)[C@H](C)O3)[C@@H](C)/C=C/C=C3\CO[C@@H]4[C@H](O)C(C)=C[C@@H](C(=O)O1)[C@]34O)O2 [Eprinomectin B1a, reference compound]",Tg_72h_%Growth_Rep1,[1]; [4],139.55%
same,Tg_72h_%Growth_Rep2,[1]; [5],101.56%
same,3) Fold change (72 h/120 h),[2],2.2
same,2) Growth (%) at 120 h,"[2]; P. falciparum, 2 μg/mL, 120 h",19.45%
same,Pf_120h_%Growth_Rep1,[2]; [6],26.03%
same,Pf_120h_%Growth_Rep2,[2]; [7],12.86%
same,1) Growth (%) at 72 h,"[3]; P. falciparum, 2 μg/mL, 72 h",42.60%
same,Pf_72h_%Growth_Rep1,[3]; [8],53.90%
same,Pf_72h_%Growth_Rep2,[3]; [9],31.29%
COc1c(OC/C=C(\C)CCC=C(C)C)ccc2ccc(=O)oc12 [Collinin],percent parasite growth at 2 µg/mL,[1]; [10],77.5%
same,percent parasite growth at 2 µg/mL,[1]; [11],110%
same,activity at 2 µg/mL,[2]; [12],60.9%
same,activity at 2 µg/mL,[2]; [13],78%
same,activity at 2 µg/mL,[3]; [14],69.5%
same,activity at 2 µg/mL,[3]; [15],86.1%
CC[C@H]1OC(=O)[C@H](C)C(=O)[C@H](C)[C@@H](O[C@@H]2O[C@H](C)C[C@H](N(C)C)[C@H]2O)[C@](C)(OC)C[C@@H](C)C(=O)[C@H](C)[C@H]2N(CCCCn3cnc(-c4cccnc4)c3)C(=O)O[C@]12C [Telithromycin],percent parasite growth at 2 µg/mL,[1]; [10],56.9%
same,percent parasite growth at 2 µg/mL,[1]; [11],55.2%
same,activity at 2 µg/mL,[2]; [12],50.8%
same,activity at 2 µg/mL,[2]; [13],9.42%
same,activity at 2 µg/mL,[3]; [14],42.3%
same,activity at 2 µg/mL,[3]; [15],40.6%
Oc1cccc2nc3ccccc3nc12 [BIA-H1520],Tg_72h_%Growth_Rep1,"[1]; T. gondii RH, library screen at 2 μg/mL, % growth, replicate 1",90.90%
same,Tg_72h_%Growth_Rep2,"[1]; T. gondii RH, library screen at 2 μg/mL, % growth, replicate 2",78.11%
same,Pf_120h_%Growth_Rep1,"[2]; P. falciparum 3D7, 120 h, library screen at 2 μg/mL, % growth, replicate 1",70.83%
same,Pf_120h_%Growth_Rep2,"[2]; P. falciparum 3D7, 120 h, library screen at 2 μg/mL, % growth, replicate 2",82.39%
same,Pf_72h_%Growth_Rep1,"[3]; P. falciparum 3D7, 72 h, library screen at 2 μg/mL, % growth, replicate 1",84.93%
same,Pf_72h_%Growth_Rep2,"[3]; P. falciparum 3D7, 72 h, library screen at 2 μg/mL, % growth, replicate 2",98.32%
Cinnamycin,Tg_72h_%Growth_Rep1,[1]; [16],85.83%
same,Tg_72h_%Growth_Rep2,[1]; [17],93.54%
same,Pf_120h_%Growth_Rep1,[2]; [18],137.57%
same,Pf_120h_%Growth_Rep2,[2]; [19],92.38%
same,Pf_72h_%Growth_Rep1,[3]; [20],85.92%
same,Pf_72h_%Growth_Rep2,[3]; [21],85.03%
"CO[C@H]1C[C@H](O[C@H]2[C@H](C)O[C@@H](O[C@@H]3/C(C)=C/C[C@@H]4C[C@@H](C[C@]5(C=C[C@H](C)[C@@H](C6CCCCC6)O5)O4)OC(=O)[C@H]4C=C(C)[C@@H](O)[C@H]5OC/C(=C\C=C\[C@@H]3C)[C@@]45O)C[C@@H]2OC)O[C@@H](C)[C@@H]1O [Doramectin, epi-]",Tg_72h_%Growth_Rep1,[1]; [4],72.64%
same,Tg_72h_%Growth_Rep2,[1]; [5],83.42%
same,Pf_120h_%Growth_Rep1,[2]; [6],-3.39%
same,Pf_120h_%Growth_Rep2,[2]; [7],23.35%
same,Pf_72h_%Growth_Rep1,[3]; [8],8.06%
same,Pf_72h_%Growth_Rep2,[3]; [9],18.63%
C=C1NC(=O)[C@H](C(C)C)NC1=O [Cyclo(delta-Ala-L-Val)],Tg_72h_%Growth_Rep1,[1]; [16],112.17%
same,Tg_72h_%Growth_Rep2,[1]; [17],87.98%
same,Pf_120h_%Growth_Rep1,[2]; [18],80.27%
same,Pf_120h_%Growth_Rep2,[2]; [19],78.77%
same,Pf_72h_%Growth_Rep1,[3]; [20],78.49%
same,Pf_72h_%Growth_Rep2,[3]; [21],81.94%
CC(C)[C@H]1C(=O)OC[C@H](NC(=O)c2nc3ccccc3cc2O)C(=O)N2CCCC[C@@H]2C(=O)NCC(=O)N(C)CC(=O)N(C)[C@H](C(C)C)C(=O)OC[C@@H](NC(=O)c2nc3ccccc3cc2O)C(=O)N2CCCC[C@@H]2C(=O)NCC(=O)N(C)CC(=O)N1C [Sandramycin],Tg_72h_%Growth_Rep1,"[1]; T. gondii, parasite screen 2 μg/mL, % growth, replicate 1",1.61%
same,Tg_72h_%Growth_Rep2,"[1]; T. gondii, parasite screen 2 μg/mL, % growth, replicate 2",2.90%
same,Pf_120h_%Growth_Rep1,"[2]; P. falciparum, 120 h, parasite screen 2 μg/mL, % growth, replicate 1",-0.53%
same,Pf_120h_%Growth_Rep2,"[2]; P. falciparum, 120 h, parasite screen 2 μg/mL, % growth, replicate 2",18.12%
same,Pf_72h_%Growth_Rep1,"[3]; P. falciparum, 72 h, parasite screen 2 μg/mL, % growth, replicate 1",-1.10%
same,Pf_72h_%Growth_Rep2,"[3]; P. falciparum, 72 h, parasite screen 2 μg/mL, % growth, replicate 2",-0.11%
COc1ccc2c3c([nH]c2c1)[C@H](C=C(C)C)N1C(=O)[C@@H]2CCCN2C(=O)[C@@H]1C3 [Fumitremorgin C],Tg_72h_%Growth_Rep1,[1]; [4],152.38%
same,Tg_72h_%Growth_Rep2,[1]; [5],98.57%
same,Pf_120h_%Growth_Rep1,[2]; [6],98.00%
same,Pf_120h_%Growth_Rep2,[2]; [7],92.77%
same,Pf_72h_%Growth_Rep1,[3]; [8],84.21%
same,Pf_72h_%Growth_Rep2,[3]; [9],83.65%
